# Data published in patent publication US9480261B1, “Insecticidal strain of Serratia for control of brown marmorated stink bug (BMSB), Halyomorpha halys” (priority 2014, dated 2016).
# Key:
# Test in all cases: Antibiotic susceptibility, disk method on L-agar; for Antibiotic resistance of strain ATCC 13880: key: R—Resistant; I—Intermediate; S—Susceptible; for Antibiotic resistance of strain BF1: key: R—Resistant; I—Intermediate; S—Susceptible; for Antibiotic resistance of strain NRRL B-50575: key: R—Resistant; I—Intermediate; S—Susceptible; for Antibiotic resistance of strain TBSB-08: key: R—Resistant; I—Intermediate; S—Susceptible; for Antibiotic resistance of strain TBSB-09: key: R—Resistant; I—Intermediate; S—Susceptible
# ATCC 13880 = format: cell-based, Serratia marcescens; conditions: 25° C.
# Experimental: (§1) Antibiotic Susceptibility: Two agar plates were streaked for growth with NRRL B-50575, and 8 paper discs, each soaked in a different antibiotic, were placed on the agar, with 4 discs on each plate. Disks containing the following antibiotics were used/obtained from Remel (Lenexa Kans.): ampicillin (10 μg), chloramphenicol (30 μg), erythromycin (30 μg), kanamycin (30 μg), neomycin (30 μg), tetracycline (30 μg), triple sulfa (300 μg) and vancomycin (30 μg). The plates were incubated for 24 hours at 25° C., and after this incubation period the zone of inhibition around each disc was measured.
# (§2) The diffusible pink pigment (FIG. 4) produced by NRRL B-50575 (TP 07) was different from the red pigment of BF1 and ATCC 13880 (ATCC-SM), and the pigment was made at temperatures below 25° C. Antibiotic susceptibility was determined using the disk method per manufacturer's instructions on L-agar, incubated at 25° C. (Table 6). All of the pink bacterial strains had the similar antibiotic resistance. They differed in sensitivity to tetracycline, kanamycin, and chloramphenicol. They also differed from BF1 and ATCC 13880 in sensitivity to erythromycin.
# Serratia marcesans BF1 = format: cell-based, Serratia marcescens; conditions: 25° C.
# Experimental: as §1, §2
# TBSB-09 = format: cell-based; conditions: 25° C.
# Experimental: as §1, §2
# TBSB-08 = format: cell-based; conditions: 25° C.
# Experimental: as §1, §2
# NRRL B-50575 = format: cell-based, Serratia; conditions: for Antibiotic resistance of strain NRRL B-50575: disk method, L-agar, 25° C.; for resistance to antibiotics of NRRL B-50575 (in words): list of identifying characteristics
# Experimental: as §1, §2
Compound,Antibiotic resistance of strain ATCC 13880 (ATCC 13880),Antibiotic resistance of strain BF1 (Serratia marcesans BF1),Antibiotic resistance of strain TBSB-09 (TBSB-09),Antibiotic resistance of strain TBSB-08 (TBSB-08),Antibiotic resistance of strain NRRL B-50575 (NRRL B-50575),resistance to antibiotics of NRRL B-50575 (in words) (NRRL B-50575)
"CC1(C)S[C@@H]2[C@H](NC(=O)[C@H](N)c3ccccc3)C(=O)N2[C@H]1C(=O)O [Ampicillin, ampicillin]",R,R,R,R,R,resistant
"CN(C)[C@@H]1C(O)=C(C(N)=O)C(=O)[C@@]2(O)C(O)=C3C(=O)c4c(O)cccc4[C@@](C)(O)[C@H]3C[C@@H]12 [Tetracycline, tetracycline]",R,R,R,I,I,
"NC[C@H]1O[C@H](O[C@H]2[C@H](O)[C@@H](O[C@H]3O[C@H](CO)[C@@H](O)[C@H](N)[C@H]3O)[C@H](N)C[C@@H]2N)[C@H](O)[C@@H](O)[C@@H]1O [Kanamycin, kanamycin]",S,S,S,I,S,
"O=C(N[C@H](CO)[C@H](O)c1ccc([N+](=O)[O-])cc1)C(Cl)Cl [Chloramphenicol, chloramphenicol]",I,S,S,I,I,intermediate
neomycin,S,S,S,S,S,susceptible
"CN[C@H](CC(C)C)C(=O)N[C@H]1C(=O)N[C@@H](CC(N)=O)C(=O)N[C@H]2C(=O)N[C@H]3C(=O)N[C@H](C(=O)N[C@H](C(=O)O)c4cc(O)cc(O)c4-c4cc3ccc4O)[C@H](O)c3ccc(c(Cl)c3)Oc3cc2cc(c3O[C@@H]2O[C@H](CO)[C@@H](O)[C@H](O)[C@H]2O[C@H]2C[C@](C)(N)[C@H](O)[C@H](C)O2)Oc2ccc(cc2Cl)[C@H]1O [Vancomycin, vancomycin]",R,R,R,R,R,resistant
"CC[C@H]1OC(=O)[C@H](C)[C@@H](O[C@H]2C[C@@](C)(OC)[C@@H](O)[C@H](C)O2)[C@H](C)[C@@H](O[C@@H]2O[C@H](C)C[C@H](N(C)C)[C@H]2O)[C@](C)(O)C[C@@H](C)C(=O)[C@H](C)[C@@H](O)[C@]1(C)O [Erythromycin, erythromycin]",I,I,R,R,R,resistant
